Measured values from patent US20240299360A1, “ADAMTS INHIBITORS, PREPARATION METHODS AND MEDICINAL USES THEREOF” (Jiangsu Hengrui Pharmaceuticals Co., Ltd., priority 2020, published 2024).

Tests used:
Assay type in all cases: biochemical
[1] = target: T1, ADAMTS-5 recombinant protein (Homo sapiens (Human), UniProt Q9UNA0); experiment: In vitro ELISA of ADAMTS-5 activity (Aggrecan-IGD enzymatic assay); details: aggrecan-IGD substrate, ARGSVIL-peptide ELISA, 37° C. 45 minutes
Procedure: In this assay, the enzymatic activity of recombinant ADAMTS-5 protein (catalog #2198-AD, R&D Systems) was assayed with a protein substrate, the aggrecan IGD protein. The aggrecan IGD protein is a polypeptide connecting human aggrecan globular domains 1 and 2 (T331-G458) expressed in E. Coli with a C-terminal His-tag (catalog #30411000, BIOTEZ). The enzymatic product ARGSVIL-peptide was detected using an ELISA kit from BioTEZ (catalog #30510111).
An assay buffer containing 50 mM HEPES pH 7.5, 100 mM NaCl, 5 mM CaCl2), 0.1% CHAPS and 5% Glycerol was prepared. Recombinant ADAMTS-5 protein was diluted to 0.3 nM in the assay buffer. Ten μl of […] and 10 μl of compound solution was transferred to each well of a 96-well plate and incubated at room temperature for 15 minutes. Substrate aggrecan-IGD was diluted to 100 nM with the assay buffer and 20 μl was added to each well. The plate was incubated at 37° C. for 45 minutes. After incubation, the newly generated epitope ARGSVIL-peptides were measured using the Aggrecanase Activity ELISA Assay Kit following the manufacturer's instructions. Then, 100 μl of stop solution was added and the absorbance of each well was read at 450 nm, using […] as reference on a TECAN plate reader.
A standard curve of the ELISA assay was generated in GraphPad Prism using Sigmoidal 4PL function and the corresponding peptide concentrations were calculated based on the standard curve. The IC50 values were calculated using function “log (inhibitor) vs. response—Variable slope (four parameters)”. (See Table 2).

[2] = target: ADAMTS-4 recombinant protein (Homo sapiens (Human), UniProt O75173); experiment: In vitro fluorescence (FRET-peptide) enzymatic assay of ADAMTS-4 activity; details: FRET peptide substrate 15 μM, 10 nM enzyme, 37° C. 3 hours
Chain of ADAMTS-4 recombinant protein (O75173 213-685): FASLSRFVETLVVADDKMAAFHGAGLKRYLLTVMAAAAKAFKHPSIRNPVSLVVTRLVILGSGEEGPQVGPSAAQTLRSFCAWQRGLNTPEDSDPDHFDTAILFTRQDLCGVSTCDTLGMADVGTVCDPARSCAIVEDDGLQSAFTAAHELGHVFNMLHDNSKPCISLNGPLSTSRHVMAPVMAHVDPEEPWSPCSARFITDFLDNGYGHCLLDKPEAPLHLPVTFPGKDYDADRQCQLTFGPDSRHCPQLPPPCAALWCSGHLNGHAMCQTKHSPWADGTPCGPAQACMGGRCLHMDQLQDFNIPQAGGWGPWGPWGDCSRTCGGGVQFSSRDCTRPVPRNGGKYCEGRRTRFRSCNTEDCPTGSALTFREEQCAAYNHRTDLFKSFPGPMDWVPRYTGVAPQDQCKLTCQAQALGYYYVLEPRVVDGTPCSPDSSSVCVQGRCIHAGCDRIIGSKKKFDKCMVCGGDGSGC
Procedure: (§1) A FRET (fluorescence resonance energy transfer) peptide was cleaved by recombinant ADAMTS-4 or ADAMTS-5 proteins into two separate fragments resulting in an increase of fluorescence signal which was quantified. The peptide was 5-FAM-[…](5-TAMRA)K-NH2, customized from ANASPEC. ADAMTS-4 recombinant protein (catalog #4307-AD) and ADAMTS-5 recombinant protein (catalog #2198-AD) were purchased from R&D Systems.
(§2) An assay buffer containing 50 mM HEPES pH 7.5, 100 mM NaCl, 5 mM CaCl2, 0.1% CHAPS and 5% Glycerol was prepared. A volume of 2.5 μl of compound in the assay buffer was dispensed to a 384-well plate, and 2.5 μl of ADAMTS-4 or ADAMTS-5 protein (final concentration in the reaction was 10 nM) was added. The compounds and proteins were pre-incubated at room temperature for 15 minutes. Then, 5 μl of substrate was added to each well. The final substrate concentrations for ADAMTS-4 and ADAMTS-5 were 15 μM and 8 μM, respectively. The fluorescence signal in each well was determined, after incubation at 37° C. for 3 hours, on a TECAN plate reader (Excitation, 490 nm; Emission, 520 nm).
(§3) The data was inputted into GraphPad Prism, and the IC50 values were calculated using function “log (inhibitor) vs. response—Variable slope (four parameters)”. (See Table 1)

[3] = target: T1, ADAMTS-5 recombinant protein; experiment: In vitro fluorescence (FRET-peptide) enzymatic assay of ADAMTS-5 activity; details: FRET peptide substrate 8 μM, 10 nM enzyme, 37° C. 3 hours
Procedure: as §1, §2, §3

T1 sequence (Q9UNA0 262-622): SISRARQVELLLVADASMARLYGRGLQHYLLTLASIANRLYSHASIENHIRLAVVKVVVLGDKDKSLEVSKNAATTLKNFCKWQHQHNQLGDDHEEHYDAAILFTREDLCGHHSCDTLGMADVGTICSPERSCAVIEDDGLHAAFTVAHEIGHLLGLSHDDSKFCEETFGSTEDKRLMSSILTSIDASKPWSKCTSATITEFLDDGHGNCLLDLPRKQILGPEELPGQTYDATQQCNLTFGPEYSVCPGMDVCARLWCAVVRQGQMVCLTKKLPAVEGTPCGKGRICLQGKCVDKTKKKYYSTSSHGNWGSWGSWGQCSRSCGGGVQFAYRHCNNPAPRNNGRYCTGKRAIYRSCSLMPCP

| Compound | IC50 [1] [nM] | IC50 [2] [nM] | IC50 [3] [nM] |
| --- | --- | --- | --- |
| O=C1NC(=O)[C@](CCC(=O)N2Cc3ccc(OC(F)(F)F)cc3C2)(C2CC2)N1 [Example 4, (S)-5-cyclopropyl-5-(3-oxo-3-(5-(trifluoromethoxy)isoindolin-2-yl)propyl)imidazolidine-2,4-dione] | 730 | 170 | 480 |
| CC1CN(C(=O)CC[C@@]2(C3CC3)NC(=O)NC2=O)CCc2ccc(Cl)c(Cl)c21 (stereo partly drawn) [Example 38, (S)-5-cyclopropyl-5-(3-(8,9-dichloro-1-methyl-1,2,4,5-tetrahydro-3H-benzo [d]azepin-3-yl)-3-oxopropyl)imidazolidine-2,4-dione] | 29 | 62 | 31 |
| CC1CN(C(=O)CC[C@@]2(C3CC3)NC(=O)NC2=O)CCc2cc(Cl)c(Cl)cc21 (stereo partly drawn) [Example 37, (S)-5-cyclopropyl-5-(3-(7,8-dichloro-1-methyl-1,2,4,5-tetrahydro-3H-benzo [d]azepin-3-yl)-3-oxopropyl)imidazolidine-2,4-dione] | 16 | 5 | 13 |
| O=C1NC(=O)C(CCC(=O)N2Cc3cc(Cl)c(Cl)cc3C2)(c2ccccn2)N1 (stereo not drawn) [Example 61, 5-(3-(5,6-dichloroisoindolin-2-yl)-3-oxopropyl)-5-(pyridin-2-yl)imidazolidine-2,4-dione] | 72 | 40 | 42 |
| CC1c2cc(C(F)(F)F)c(Cl)cc2CN1C(=O)CC[C@@]1(C2CC2)NC(=O)NC1=O (stereo partly drawn) [Example 41, (5S)-5-(3-(5-chloro-1-methyl-6-(trifluoromethyl)isoindolin-2-yl)-3-oxopropyl)-5-cyclopropylimidazolidine-2,4-dione] | 18 | 36 | 21 |
| CC(C[C@@]1(C2CC2)NC(=O)NC1=O)C(=O)N1Cc2ccc(C(F)(F)F)cc2C1 (stereo partly drawn) [Example 29, (5S)-5-cyclopropyl-5-(2-methyl-3-oxo-3-(5-(trifluoromethyl)isoindolin-2-yl)propyl)imidazolidine-2,4-dione] | 56 | 14 | 22 |
| O=C1NC(=O)C(CCC(=O)N2Cc3cc(Cl)c(C(F)(F)F)cc3C2)(c2ncccn2)N1 (stereo not drawn) [Example 79, 5-(3-(5-chloro-6-(trifluoromethyl)isoindolin-2-yl)-3-oxopropyl)-5-(pyrimidin-2-yl)imidazolidine-2,4-dione] | 210 | 250 | 110 |
| O=C1NC(=O)[C@](CCC(=O)N2Cc3cc(F)c(C(F)(F)F)cc3C2)(C2CC2)N1 [Example 39, (S)-5-cyclopropyl-5-(3-(5-fluoro-6-(trifluoromethyl)isoindolin-2-yl)-3-oxopropyl)imidazolidine-2,4-dione] | 65 | 110 | 62 |
| COc1ccc2c(c1)CN(C(=O)CC[C@@]1(C3CC3)NC(=O)NC1=O)C2 [Example 24, (S)-5-cyclopropyl-5-(3-(5-methoxyisoindolin-2-yl)-3-oxopropyl)imidazolidine-2,4-dione] | 840 | 120 | 360 |
| Cn1ccnc1C1(CCC(=O)N2Cc3cc(Cl)c(C(F)(F)F)cc3C2)NC(=O)NC1=O (stereo not drawn) [Example 73, 5-(3-(5-chloro-6-(trifluoromethyl)isoindolin-2-yl)-3-oxopropyl)-5-(1-methyl-1H-imidazol-2-yl)imidazolidine-2,4-dione] | 47 | 61 | 27 |
| [2H]C1([2H])c2cc(Cl)c(Cl)cc2C(C)N1C(=O)CC[C@@]1(C2CC2)NC(=O)NC1=O (stereo partly drawn) [Example 69, (5S)-5-cyclopropyl-5-(3-(5,6-dichloro-1-methylisoindolin-2-yl-3,3-d2)-3-oxopropyl)imidazolidine-2,4-dione] | 47 | 68 | 40 |
| Cc1cc2c(cc1Cl)CN(C(=O)CC[C@@]1(C3CC3)NC(=O)NC1=O)C2 [Example 57, (S)-5-(3-(5-chloro-6-methylisoindolin-2-yl)-3-oxopropyl)-5-cyclopropylimidazolidine-2,4-dione] | 190 | 43 | 130 |
| COc1cc2c(cc1Cl)CN(C(=O)C(C)C[C@@]1(C3CC3)NC(=O)NC1=O)C2 (stereo partly drawn) [Example 36-1, (5S)-5-(3-(5-chloro-6-methoxyisoindolin-2-yl)-2-methyl-3-oxopropyl)-5-cyclopropylimidazolidine-2,4-dione] | 36 | 21 | 15 |
| Cc1cc(C2(CCC(=O)N3Cc4cc(Cl)c(C(F)(F)F)cc4C3)NC(=O)NC2=O)n[nH]1 (stereo not drawn) [Example 78, 5-(3-(5-chloro-6-(trifluoromethyl)isoindolin-2-yl)-3-oxopropyl)-5-(5-methyl-1H-pyrazol-3-yl)imidazolidine-2,4-dione] | 76 | 160 | 57 |
| [2H]C1([2H])c2cc(Cl)c(C(F)(F)F)cc2C(C)N1C(=O)CC[C@@]1(C2CC2)NC(=O)NC1=O (stereo partly drawn) [Example 71, (5S)-5-(3-(5-chloro-1-methyl-6-(trifluoromethyl)isoindolin-2-yl-3,3-d2)-3-oxopropyl)-5-cyclopropylimidazolidine-2,4-dione] | 29 | 54 | 26 |
| Cc1cc(C2(CCC(=O)N3Cc4cc(Cl)c(C(F)(F)F)cc4C3)NC(=O)NC2=O)no1 (stereo not drawn) [Example 75, 5-(3-(5-chloro-6-(trifluoromethyl)isoindolin-2-yl)-3-oxopropyl)-5-(5-methylisoxazol-3-yl)imidazolidine-2,4-dione] | 110 | 120 | 75 |
| O=C1NC(=O)C(CC(COCc2ccccc2)C(=O)N2Cc3ccc(C(F)(F)F)cc3C2)(C2CC2)N1 (stereo not drawn) [Example 65, 5-(2-((benzyloxy)methyl)-3-oxo-3-(5-(trifluoromethyl)isoindolin-2-yl)propyl)-5-cyclopropylimidazolidine-2,4-dione] | 31 | 16 | 21 |
| COc1cc2c(cc1Cl)CN(C(=O)CC[C@@]1(C3CC3)NC(=O)NC1=O)C2 [Example 35, (S)-5-(3-(5-chloro-6-methoxyisoindolin-2-yl)-3-oxopropyl)-5-cyclopropylimidazolidine-2,4-dione] | 170 | 230 | 110 |
| CC(C[C@@]1(C2CC2)NC(=O)NC1=O)C(=O)N1Cc2cc(Cl)c(Cl)cc2C1 (mixture of isomers) [Example 34-2, (5S)-5-cyclopropyl-5-(3-(5,6-dichloroisoindolin-2-yl)-2-methyl-3-oxopropyl)imidazolidine-2,4-dione] | 17 | 7 | 9 |
| O=C1NC(=O)[C@](CCC(=O)N2Cc3ccccc3C2)(C2CC2)N1 [Example 11, (S)-5-cyclopropyl-5-(3-(isoindolin-2-yl)-3-oxopropyl)imidazolidine-2,4-dione] | 560 | 110 | 410 |
| Cn1ccnc1C1(CCC(=O)N2Cc3ccc(C(F)(F)F)cc3C2)NC(=O)NC1=O (stereo not drawn) [Example 62, 5-(1-methyl-1H-imidazol-2-yl)-5-(3-oxo-3-(5-(trifluoromethyl)isoindolin-2-yl)propyl)imidazolidine-2,4-dione] | 290 | 100 | 89 |
| CC(C)C(C[C@@]1(C2CC2)NC(=O)NC1=O)C(=O)N1Cc2ccc(C(F)(F)F)cc2C1 (stereo partly drawn) [Example 49-2, (5S)-5-cyclopropyl-5-(3-methyl-2-(5-(trifluoromethyl)isoindoline-2-carbonyl)butyl)imidazolidine-2,4-dione] | 55 | 15 | 20 |
| O=C1NC(=O)[C@](CCC(=O)N2CCc3cc(C(F)(F)F)ccc3C2)(C2CC2)N1 [Example 6, (S)-5-cyclopropyl-5-(3-oxo-3-(6-(trifluoromethyl)-3,4-dihydroisoquinolin-2 (1H)-yl)propyl)imidazolidine-2,4-dione] | 650 | 56 | 240 |
